We go through 17 compounds from patent US7220768B2, “Isoxazole-containing thiourea inhibitors useful for treatment of varicella zoster virus” (Wyeth Holdings Corp., priority 2003, dated 2007).

The structures appear in SMILES notation. Converted amounts (≈) assume the structure as drawn.

One assay in a line: MTS assay (Table 2). The assay is classed as cell-based. On the technique in general: Tetrazolium dyes change colour on reduction, which living cells bring about.
The subject of the next assay is RSV. In words: RSV antiviral assay (Table 2). Format: cell-based. Conditions: for IC50: human respiratory syncytial virus.
Another assay concerns HCMV. In words: Human cytomegalovirus yield / microtiter plate assay. The assay is classed as cell-based. Conditions: human foreskin fibroblasts; for IC50: Human betaherpesvirus 5, Fibroblast. How it is done:
Yield Assay. Monolayer cultures of human foreskin fibroblasts are infected with HCMV wild-type virus, typically at a multiplicity of infection equal to 0.2, in the presence of inhibitors compound (varying concentrations). At three days post-infection, total virus produced in these cultures (i.e. virus yield) is assessed by harvesting and titering the virus in 12-well plates of cultured human foreskin fibroblasts (done in the absence of inhibitors). Plaques are quantified at 2 weeks post-infection. An inhibitor of HCMV is identified by the reduction in titer of virus yield in the presence, compared to the titer in the absence of compound. In this assay, the relative anti-HCMV activity of an inhibitor is typically determined by calculating the IC50 or IC90 value, that is, the amount of compound required to reduce the virus yield by 50% or 90%, respectively. Table 2 describes IC50 data for compounds tested against HCMV.
Microtiter Plate Assay. Ninety-six well plate cultures of human foreskin fibroblasts are infected in the presence of inhibitor compound with a HCMV recombinant mutant virus whose genome contains the prokaryotic beta-glucuronidase gene (Jefferson, R. A., S. M. Burgess, and D. Hirsh. 1986. Beta-glucuronidase from Escherichia coli as a gene fusion marker. Proc. Natl. Acad. Sci. USA 83:8447–8451) whose expression is controlled by a viral promoter. An example of such a virus is RV145 [T. R. Jones; V. P. Muzithras, and Y. Gluzman. 1991, Replacement mutagenesis of the human cytomegalovirus genome: US10 and US11 gene products are nonessential, J. Virol. 65:5860–5872]. Since it is under the control of a viral promoter, beta-glucuronidase expression is an indirect indicator of growth and replication of HCMV in this assay. At 96 hours post-infection, the infected cell lysates are prepared (using 50 mM sodium phosphate [pH 7.0] containing 0.1% Triton X-100 and 0.1% sarkosyl) and assayed for beta-glucuronidase activity using a substrate for the enzyme which when cleaved yields either a product which can be measured colorimetrically in a spectrophotometer or fluorescently in a microfluorimeter. Examples of such substrates are p-nitrophenyl-beta-D-glucuronide and methylumbelliferylglucuronide, respectively. The presence of an antiviral compound is indicated by the reduced expression of the HCMV genome resident beta-glucuronidase gene, compared to the absence of inhibitor. […] Data from this assay generated using varying amounts of inhibitor compound is also used to estimate the IC50 of an inhibitor compound.

A further assay has as its system VZV. In words: VZV antiviral assay (Table 2). Format: cell-based, varicella zoster virus. Conditions: for IC50: Human alphaherpesvirus 3.
For a further assay, the system named is HSV. In words: HSV Antiviral (ELISA) Assay. Format: cell-based, herpes simplex virus. Conditions: Vero cells. As for the experimental part: HSV Antiviral (ELISA) Assay. Vero cells (ATCC #CCL-81) are plated on 96-well tissue culture plates at 3.5×10^4 cells per 100 μl tissue culture DMEM (Dulbecco's modified Eagle media) supplemented with 2% fetal bovine serum (FBS) in each well. After overnight incubation, inhibition was determined by comparing the fluorescence obtained in absence of compound to that obtained in the presence of compound.

Consider `CC(NC(=S)Nc1ccc(-c2conc2-c2ccnc3ccccc23)cc1)c1ccc(F)cc1` (stereo not shown) [Example 16, N-[1-(4-Fluorophenyl)ethyl]-N′-{4-[3-(4-quinolinyl)-4-isoxazolyl]phenyl}thiourea], for which the IC50 (in general, the midpoint of a concentration-inhibition curve) was 6.5 µg/mL (≈ 13.9 µM) in the assay “MTS assay (Table 2)”; 2.3 µg/mL (≈ 4.91 µM) in the assay with RSV; 0.8 µg/mL (≈ 1.71 µM) with HCMV; 0.08 µg/mL (≈ 0.171 µM) in the assay on VZV; 3.1 µg/mL (≈ 6.62 µM) in the assay with HSV.
The corresponding values for `CC(NC(=S)Nc1ccc(-c2conc2-c2ccncc2)cc1)c1ccc(F)cc1` (stereo not shown) [Example 17, N-[1-(4-Fluorophenyl)ethyl]-N′-{4-[3-(4-pyridinyl)-4-isoxazolyl]phenyl}thiourea] are 5.5 µg/mL (≈ 13.1 µM), 1.5 µg/mL (≈ 3.58 µM), 0.93 µg/mL (≈ 2.22 µM), 0.14 µg/mL (≈ 0.335 µM) and 3.7 µg/mL (≈ 8.84 µM).
Consider `CC(NC(=S)Nc1ccc(-c2conc2-c2ncc[nH]2)cc1)c1ccc(F)cc1` (stereo not shown) [Example 24, N-[1-(4-Fluorophenyl)ethyl]-N′-{4-[3-(1 H-imidazol-2-yl)-4-isoxazolyl]phenyl}thiourea], for which the IC50 in “MTS assay (Table 2)” was greater than 15 µg/mL; in the assay on RSV, greater than 10 µg/mL; in the assay on HCMV, greater than 10 µg/mL; with VZV, 1 µg/mL (≈ 2.45 µM); in the assay with HSV, greater than 10 µg/mL.
Consider `CC(NC(=S)Nc1ccc(-c2conc2-c2ccccc2)cc1)c1ccc(F)cc1` (stereo not shown) [Example 23, N-[1-(4-Fluorophenyl)ethyl]-N′-[4-(3-phenyl-4-isoxazolyl)phenyl]thiourea], for which the half-maximal inhibitory concentration (IC50) in the assay “MTS assay (Table 2)” was greater than 15 µg/mL; with RSV, greater than 10 µg/mL; in the assay on HCMV, greater than 10 µg/mL; in the assay with VZV it was 0.89 µg/mL (≈ 2.13 µM); with HSV, greater than 10 µg/mL.
As for `CC(NC(=S)Nc1ccc(-c2conc2-c2ccc(N)cc2)cc1)c1ccc(F)cc1` (stereo not shown) [Example 18, N-{4-[3-(4-Aminophenyl)-4-isoxazolyl]phenyl}-N′-[1-(4-fluorophenyl)ethyl]thiourea], the IC50 in the assay “MTS assay (Table 2)” was 13 µg/mL (≈ 30.1 µM); with RSV, greater than 10 µg/mL; in the assay on HCMV, 2 µg/mL (≈ 4.62 µM); with VZV, 0.05 µg/mL (≈ 0.116 µM); with HSV, greater than 10 µg/mL.
With `CC(NC(=S)Nc1ccc(-c2nocc2Cc2ccc(F)cc2)cc1)c1ccc(F)cc1` (stereo not shown) [Example 11, 1-{4-[4-(4-Fluorobenzyl)isoxazol-3-yl]phenyl}-3-[1-(4-fluorophenyl)ethyl]thiourea], the IC50 in “MTS assay (Table 2)” was 1.9 µg/mL (≈ 4.23 µM); in the assay with RSV, 4.7 µg/mL (≈ 10.5 µM); in the assay with HCMV, 1.8 µg/mL (≈ 4 µM); with VZV, 0.16 µg/mL (≈ 0.356 µM); in the assay with HSV, 2.1 µg/mL (≈ 4.67 µM).
The corresponding values for `CC(NC(=S)Nc1ccc(-c2conc2-c2csnn2)cc1)c1ccc(F)cc1` (stereo not shown) [Example 19, N-[1-(4-Fluorophenyl)ethyl]-N′-{4-[3-(1,2,3-thiadiazol-4-yl)-4-isoxazolyl]phenyl}thiourea] are greater than 15 µg/mL, greater than 10 µg/mL, 0.9 µg/mL (≈ 2.12 µM), 0.13 µg/mL (≈ 0.306 µM) and greater than 10 µg/mL.
The corresponding values for `CC(NC(=S)Nc1ccc(-c2nocc2-c2ccccc2F)cc1)c1ccc(F)cc1` (stereo not shown) [Example 14, 1-[1-(4-Fluorophenyl)ethyl]-3-{4-[4-(2-fluorophenyl)isoxazol-3-yl]phenyl}thiourea] are greater than 15 µg/mL, greater than 10 µg/mL, greater than 10 µg/mL, 5.4 µg/mL (≈ 12.4 µM) and greater than 10 µg/mL.
The matching figures for `CC(NC(=S)Nc1ccc(-c2nocc2Cc2ccccc2)cc1)c1ccc(F)cc1` (stereo not shown) [Example 10, 1-[4-(4-Benzylisoxazol-3-yl)phenyl]-3-[1-(4-fluorophenyl)ethyl]thiourea]: greater than 15 µg/mL, greater than 10 µg/mL, 2.4 µg/mL (≈ 5.56 µM), 0.086 µg/mL (≈ 0.199 µM) and greater than 10 µg/mL.
For `CC(NC(=S)Nc1ccc(-c2conc2-c2ccccn2)cc1)c1ccc(F)cc1` (stereo not shown) [Example 20, N-[1-(4-Fluorophenyl)ethyl]-N′-{4-[3-(2-pyridinyl)-4-isoxazolyl]phenyl}thiourea], the IC50 is greater than 15 µg/mL in the assay “MTS assay (Table 2)”; greater than 10 µg/mL with RSV; greater than 10 µg/mL with HCMV; 0.18 µg/mL (≈ 0.43 µM) in the assay on VZV; greater than 10 µg/mL in the assay with HSV.
Turning to `CC(NC(=S)Nc1ccc(-c2conc2-c2ccccc2O)cc1)c1ccc(F)cc1` (stereo not shown) [Example 25, N-[1-(4-Fluorophenyl)ethyl]-N′-{4-[3-(2-hydroxyphenyl)-4-isoxazolyl]phenyl}thiourea], the IC50 in the assay “MTS assay (Table 2)” was greater than 15 µg/mL; in the assay on RSV, greater than 10 µg/mL; in the assay on HCMV it was 7.9 µg/mL (≈ 18.2 µM); in the assay on VZV it was 1.9 µg/mL (≈ 4.38 µM); in the assay with HSV, greater than 10 µg/mL.
Take `CC(NC(=S)Nc1ccc(-c2nocc2CO)cc1)c1ccc(F)cc1` (stereo not shown) [Example 9, 1-[1-(4-Fluorophenyl)ethyl]-3-[4-(4-hydroxymethylisoxazol-3-yl)phenyl]thiourea]: the half-maximal inhibitory concentration (IC50) in the assay “MTS assay (Table 2)” is greater than 15 µg/mL; with RSV it was 7.2 µg/mL (≈ 19.4 µM); with HCMV, 5.7 µg/mL (≈ 15.3 µM); in the assay on VZV it was 2 µg/mL (≈ 5.38 µM); in the assay on HSV, greater than 10 µg/mL.
Turning to `CC(NC(=S)Nc1ccc(-c2conc2-c2ccc(N(C)C)cc2)cc1)c1ccc(F)cc1` (stereo not shown) [Example 21, N-(4-{3-[4-(Dimethylamino)phenyl]-4-isoxazolyl}phenyl)-N′-[1-(4-fluorophenyl)ethyl]thiourea], the IC50 in “MTS assay (Table 2)” was greater than 15 µg/mL; in the assay on RSV, greater than 10 µg/mL; with HCMV it was 9.3 µg/mL (≈ 20.2 µM); with VZV, 0.34 µg/mL (≈ 0.738 µM); with HSV it was greater than 10 µg/mL.
On to `CC(NC(=S)Nc1ccc(-c2conc2-c2cccnc2)cc1)c1ccc(F)cc1` (stereo not shown) [Example 15, N-[1-(4-Fluorophenyl)ethyl]-N′-{4-[3-(3-pyridinyl)-4-isoxazolyl]phenyl}thiourea], for which the IC50 in “MTS assay (Table 2)” is 14 µg/mL (≈ 33.5 µM); in the assay with RSV it was greater than 10 µg/mL; in the assay with HCMV, greater than 10 µg/mL; in the assay with VZV, 0.19 µg/mL (≈ 0.454 µM); in the assay on HSV, 3.1 µg/mL (≈ 7.41 µM).
With `CC(NC(=S)Nc1ccc(-c2nocc2C(C)(C)C)cc1)c1ccc(F)cc1` (stereo not shown) [Example 13, 1-[4-(4-tert-Butylisoxazol-3-yl)phenyl]-3-[1-(4-fluorophenyl)ethyl]thiourea], the IC50 is 1.5 µg/mL (≈ 3.77 µM) in the assay “MTS assay (Table 2)”; 2.1 µg/mL (≈ 5.28 µM) with RSV; 1.3 µg/mL (≈ 3.27 µM) in the assay with HCMV; 0.23 µg/mL (≈ 0.579 µM) in the assay on VZV; 2.3 µg/mL (≈ 5.79 µM) in the assay on HSV.
On to `CC(NC(=S)Nc1ccc(-c2nocc2-c2ccccc2)cc1)c1ccc(F)cc1` (stereo not shown) [Example 12, 1-[1-(4-Fluoropheny)ethyl]-3-[4-(4-phenylisoxazol-3-yl)phenyl]thiourea], for which, in the assay “MTS assay (Table 2)”, the “IC50 MTS” value is greater than 15 µg/mL. Further, the “IC50 RSV” value with RSV was greater than 10 µg/mL. In addition, the “IC50 CMV” value in the assay on HCMV is greater than 10 µg/mL. Moreover, the “IC50 VZV” value in the assay on VZV worked out at 0.37 µg/mL (≈ 0.886 µM). In addition, the “IC50 HSV” value with HSV is greater than 10 µg/mL.
As to `CC(NC(=S)Nc1ccc(-c2conc2-c2ccc(O)cc2)cc1)c1ccc(F)cc1` (stereo not shown) [Example 22, N-[1-(4-Fluorophenyl)ethyl]-N′-{4-[3-(4-hydroxyphenyl)-4-isoxazolyl]phenyl}thiourea], the IC50 in the assay “MTS assay (Table 2)” is greater than 15 µg/mL; with RSV, 9.9 µg/mL (≈ 22.8 µM); in the assay on HCMV, 2.5 µg/mL (≈ 5.77 µM); in the assay on VZV, 0.61 µg/mL (≈ 1.41 µM); with HSV, greater than 10 µg/mL.
